Measurements as given in the NIST ThermoML archive (doi:10.1021/acs.jced.8b00958).

Assay: mn = molality of the nth substance listed, in mol/kg
Details: 85 kPa, Liquid; for viscosity: Falling or rolling sphere viscometry; for speed of sound: Frequency=3 MHz, Single path-length method; for mass density: Vibrating tube method

O=C(CO)[C@@H](O)[C@H](O)[C@H](O)CO [D-fructose] + O
Details	mass density [kg/m3]	speed of sound [m/s]	viscosity [mPa·s]
288.15 K, m1 = 0.0498	1002.61	–	1.163
288.15 K, m1 = 0.1521	–	–	1.224
288.15 K, m1 = 0.2488	1016.24	1484.3	1.274
288.15 K, m1 = 0.3494	1022.9	1491.6	1.335
288.15 K, m1 = 0.4476	1029.24	1498.6	1.394
288.15 K, m1 = 0.5483	1035.58	–	1.465
288.15 K, m1 = 0.6491	1041.8	1512.6	1.529
298.15 K, m1 = 0.0498	1000.49	–	–
298.15 K, m1 = 0.1521	–	1506.7	0.964
298.15 K, m1 = 0.2488	1013.83	1513.1	0.993
298.15 K, m1 = 0.3494	1020.36	1519.4	1.038
298.15 K, m1 = 0.4476	1026.59	1525.6	1.08
298.15 K, m1 = 0.5483	1032.83	1532	1.133
298.15 K, m1 = 0.6491	1038.95	1538.4	1.178
308.15 K, m1 = 0.0498	997.41	–	–
308.15 K, m1 = 0.1521	1004.25	1528.8	0.774
308.15 K, m1 = 0.2488	–	1534.4	0.804
308.15 K, m1 = 0.3494	1016.98	1540.3	0.836
308.15 K, m1 = 0.4476	1023.1	1546	0.87
308.15 K, m1 = 0.5483	1029.27	1551.3	0.909
308.15 K, m1 = 0.6491	1035.3	1556.9	0.941
318.15 K, m1 = 0.0498	993.54	–	0.624
318.15 K, m1 = 0.1521	1000.27	–	0.648
318.15 K, m1 = 0.2488	–	1549.8	0.67
318.15 K, m1 = 0.3494	1012.8	1555	0.699
318.15 K, m1 = 0.4476	1018.84	1559.9	0.718
318.15 K, m1 = 0.5483	1024.89	1565.3	0.747
318.15 K, m1 = 0.6491	1030.8	1570.3	0.777
